Patent US20260224555A1, “NEW PHENYLQUINOLONE COMPOUND HAVING ANTIBACTERIAL AND ANTI-CANCER FUNCTIONS AND PREPARATION THEREOF” (AlphaMol Science Ltd (Shanghai), priority 2022, published 2026)
Converted amounts (≈) assume the structure as drawn. Like-named read-outs stand apart in the source and are kept apart here.

Key:
Assay type in all cases: cell-based
E. coli ATCC 25922 = test: In vitro antibacterial activity assay (MIC, broth dilution); details: Escherichia coli, ATCC25922
Source text: (§1) The method used to indicate the activity of the compounds in this example is to record the minimum inhibitory concentration (MIC) of the compounds against bacteria. The specific experimental method is as follows:
(§2) 1. The bacterial liquid cultured from a single colony was taken, and diluted into autoclaved CAMHB broth in a ratio of 1:1000, and mixed well.
(§3) 2. The prepared drug solution was filtered through a sterile 0.22 µm syringe filter and placed in a sterile EP tube for later use.
(§4) 3. A 96-well plate was taken, and 20 µL of drug solution ([…]) was added to each well in the first column of the 96-well plate. Then, 180 µL of diluted bacterial liquid was added and mixed well (Perform 3 replicate rows for each drug).
(§5) The same process was performed for the hydrochloride drug.
(§6) 4. 100 μL of diluted bacterial liquid was added to each well in the remaining 11 columns of the 96-well plate. Drugs are the same as above.
(§7) 5. Serial dilution: 100 μL of liquid was taken from the first column to the second column, mixed well, then 100 μL of liquid was taken from the second column to the third column, mixed well, and so on, sequentially diluting down to the last column (column 12). After mixing column 12 well, 100 μL of liquid thereof was discarded. The drug concentration in each well was decreased by two-fold serially (the concentration in the first well is 40 μg/mL).
(§8) 6. Blank CAMHB broth without added bacteria liquid was added to 3 blank wells in the 96-well plate, as negative control.
(§9) 7. The diluted bacterial liquid was added to 3 blank wells in the 96-well plate, as positive control.
(§10) 8. Incubated at 37° C. for 16 hours.
(§11) 9. Results reading: the minimum inhibitory concentration is the minimum drug concentration at which no bacterial growth is visible to the naked eye and without turbidity.

S. aureus ATCC 43300 = test: as above; details: Staphylococcus aureus, ATCC43300
Source text: as §1, §2, §3, §4, §5, §6, §7, §8, §9, §10, §11

Hela = test: In vitro anticancer activity test (MTT cell proliferation); details: Homo sapiens, average proliferation inhibition rate at the dosage of 40 μM, read-out: Hela Average inhibition rate %
Method: The anticancer activity of the compounds was tested using an in vitro cancer cell tests. The specific test method is as follows:
1. Cell recovery and culture method: the cryovial was taken out from the liquid nitrogen container firstly, soaked directly in 37° C. warm water, and shaked from time to time to let it thaw as soon as possible. Then, the cryovial was transferred to a clean bench, and the lid was open. The cell suspension was taken into a centrifuge tube using a rubber-tipped dropper and more than 10 times the culture medium was added, mixed well, and centrifuged at 50 g for 5 minutes. Then, the supernatant was discarded, complete culture medium containing 10% fetal bovine serum was added to resuspend the cells, the cells was counted, the cell density was adjusted, and then inoculated into a culture bottle. The culture bottle was placed in a cell culture incubator at 5% CO2 and 37° C. The complete culture medium was replaced once the next day and the culture was continued.
2. Cell passaging method: adherent cells in the logarithmic growth phase were placed in a clean bench, the original culture medium was discarded, and washed three times with 1×PBS. An appropriate amount of 0.25% trypsin digestion solution was added to moisten the cells, and then the trypsin solution was aspirated. The cells were placed in a cell culture incubator at 5% CO2 and 37° C. for digestion for a suitable time, and observed under a microscope. When 90% of the cells become round, the cells were moved immediately to the clean bench and complete culture medium was added to terminate digestion. Then, the cells were dislodged by pipetting up and down with a rubber-tipped dropper to single cells. The cells were counted, and the cell density was adjusted. The cells were inoculated into a suitable culture bottle or dish, added enough complete culture medium, and placed in a cell culture incubator at 5% CO2 and 37° C. for static culture.
For suspension cells in the logarithmic phase, the original culture medium was directly centrifuged at 50 g for 5 minutes, the supernatant was discarded, and the cells were washed once with PBS and centrifuged. After discarding the supernatant, the complete culture medium was added and the cells were dispersed using a rubber-tipped dropper. The cells are counted, and the cell density was adjusted. The cells were inoculated into appropriate culture bottles or culture dishes, and sufficient complete culture medium was added, and the cells were cultured in a cell culture incubator at 5% CO2 and 37° C.
3. Cell proliferation assay: cells in good state in logarithmic phase were taken and appropriate amount of the cells was inoculated into 96-well plates according to the cell passage treatment method, with each well containing 180 μL complete medium. After the cells growth was recovered and the number of cells in each well is 5000±500, a drug was added for treatment.
After drug treatment during the experimental time, MTT solution with a final concentration of 0.5 mg/mL was added to each well, and placed in a cell culture incubator at 5% CO2 and 37° C. to allow a fully reaction of MTT with cells. After 4 hours, the solution in the 96-well plate was discarded, 100 µL of DMSO was added, and shaked to dissolve the formazan precipitated at the bottom of the plate, and the absorbance value of samples was detected at a wavelength of 570 nm using a microplate reader. Calculation method of cell viability rate:
Table 4 lists some compounds that have inhibitory effects against both of bacteria and cancer cells. In the table, the inhibitory effects against cancer cells are shown: the average proliferation inhibition rate (%) against cancer cells at the dosage of 40 μM.

[1] = Table 3, read-out: MIC E. coli ATCC 25922
[2] = Table 3, read-out: MIC S. aureus ATCC 43300
[3] = Table 4, read-out: E. coli ATCC 25922 MIC
[4] = Table 4, read-out: S. aureus ATCC 43300 MIC

MIC (E. coli ATCC 25922; [1])	MIC (S. aureus ATCC 43300; [2])	MIC (E. coli ATCC 25922; [3])	MIC (S. aureus ATCC 43300; [4])	SMILES	inhibition at 40 µM (Hela)
0.1 to 1 µg/mL (≈ 0.206 to 2.06 µM)	0.1 to 1 µg/mL (≈ 0.206 to 2.06 µM)			C#CCNS(=O)(=O)c1ccc(-c2cc3c(cc2F)c(=O)c(C(=O)O)cn3C2CC2)cc1[N+](=O)[O-] [Example 116]	
0.1 to 1 µg/mL (≈ 0.208 to 2.08 µM)	≤ 0.1 µg/mL	≤ 1 µg/mL	≤ 1 µg/mL	O=C(O)c1cn(C2CC2)c2c(Cl)c(-c3ccc(S(=O)(=O)NCCO)cc3)c(F)cc2c1=O [Example 89]	≥ 20%
0.1 to 1 µg/mL (≈ 0.281 to 2.81 µM)	0.1 to 1 µg/mL (≈ 0.281 to 2.81 µM)			COc1c(-c2ncncn2)c(F)cc2c(=O)c(C(=O)O)cn(C3CC3)c12 [Example 77]	
0.1 to 1 µg/mL (≈ 0.227 to 2.27 µM)	0.1 to 1 µg/mL (≈ 0.227 to 2.27 µM)			COc1cc(-c2c(F)cc3c(=O)c(C(=O)O)cn(C4CC4)c3c2OC)ccc1NC(C)=O [Example 66]	
0.1 to 1 µg/mL	0.1 to 1 µg/mL			Nc1cc(-c2nc3c(cc2F)c(=O)c(C(=O)O)cn3C2CC2)ccn1.O=CO [Example 56]	
0.1 to 1 µg/mL (≈ 0.241 to 2.41 µM)	≤ 0.1 µg/mL	≤ 1 µg/mL	≤ 1 µg/mL	O=C(O)c1cn(C2CC2)c2cc(-c3ccc4c(c3)CNS4(=O)=O)c(F)cc2c1=O [Example 107]	≥ 20%
≤ 0.1 µg/mL	≤ 0.1 µg/mL			COc1c(-c2ccc(S(N)(=O)=O)c([N+](=O)[O-])c2)c(F)cc2c(=O)c(C(=O)O)cn(C3CC3)c12 [Example 110]	
≤ 0.1 µg/mL	1 to 8 µg/mL (≈ 2.6 to 20.8 µM)	≤ 1 µg/mL	≥ 1 µg/mL	COc1c(-c2ccnc(CO)c2)c(F)cc2c(=O)c(C(=O)O)cn(C3CC3)c12 [Example 148]	≥ 20%
0.1 to 1 µg/mL (≈ 0.283 to 2.83 µM)	0.1 to 1 µg/mL (≈ 0.283 to 2.83 µM)			CCn1cc(C(=O)O)c(=O)c2cc(OC)c(-c3ccc(N)nc3)c(C)c21 [Example 74]	
≤ 0.1 µg/mL	≤ 0.1 µg/mL	≤ 1 µg/mL	≤ 1 µg/mL	Nc1cc(-c2c(F)cc3c(=O)c(C(=O)O)cn(C4CC4)c3c2Cl)ccn1 [Example 151]	≥ 20%
1 to 8 µg/mL (≈ 1.99 to 15.9 µM)	≤ 0.1 µg/mL	≥ 1 µg/mL	≤ 1 µg/mL	CCCCCCCNS(=O)(=O)c1ccc(-c2cc3c(cc2F)c(=O)c(C(=O)O)cn3C2CC2)cn1 [Example 128]	≥ 20%
